Assays:
[1] = tested on: Chlorella sp. ATCC 7516; assay: Algal efficacy testing of dry paint films (modified ASTM 5589, 6-well plates); assay type: cell-based; conditions: 3 weeks; for % inhibition: at the total conc, vs blank; for Total conc: total biocide conc in paint reported for pass level ≧75% inhibition (max tested 5000 ppm if no pass)
Method: (§1) KATHON™ 893T (100% OIT) and ROCIMA™ 200 (20% DCOIT) were post added to a white, acrylic/silicone based outdoor paint free of biocides to give a total active ingredient concentration of 10000 and 1000 ppm respectively. These paints were then diluted with an antimicrobial free acrylic/silicone based paint and mixed to prepare targeted concentrations of antimicrobial compounds for the testing. The total biocides concentrations tested were 125, 250, 500, 1000, 2000 and 5000 ppm. After biocides addition or dilution, the paints were mixed 90 seconds with the horse power shaker (AXEL 75M3372/Agitateur SO-10MI) until uniformity was achieved. Paints containing different antimicrobial compounds at the same levels were mixed together in order to obtain the desired ratio of antimicrobial compounds. After one day, the paints were applied to Schleicher & Schuell filter paper at 280 μm wet film thickness and dried for 3 days at room temperature avoiding direct exposure to sunlight. Square discs (1.6 cm×1.6 cm) were cut out from each panel and were used as the substrate for algal efficacy tests. This sample size allowed for an agar border when the sample disc was placed into the well of the test plate.
(§2) Algal efficacy was tested according to modified ASTM 5589 which is a standard accelerated test method for determining resistance of various coatings (including paints) to algal defacement. To accommodate for high-throughput screening, this method was scaled down from petri dishes to 6-well plates. Bold Modified Basal Freshwater Nutrient Solution was used as growth medium. A single coated filter paper coupon was placed with a pair of sterile forceps at the center of the agar plug (on top) with the painted surface facing upwards. Algal inoculums were prepared by mixing equal concentrations (1×10^6 cfu/ml) and equal volumes of exponentially growing algae cultures.
(§3) Each well that contains a tested coupon was inoculated with 1750 μl of algal suspensions (1×10^6 cfu/ml) making sure that the whole surface (paint film as well as the agar surrounding it) was evenly covered. The plates were incubated at room temp (21° C.-25° C.) with cyclic exposure to light and dark phases, for a period of three weeks.
(§4) At the end of the three week incubation period, the samples were scored for percent inhibition regarding visible algal growth compared to the blank sample (0% inhibition).
(§5) The SI is calculated based on F. C.
(§6) SI value of <1 in the formula indicates a synergism of the blended biocides exists.
(§7) The minimal targeted inhibition was set at 75%, meaning a coupon with at least 75% algal growth inhibition was considered as a pass.

[2] = tested on: Stichococcus bacillaris SAG 379-1a / CCAP 379/1a; assay: as above; assay type: cell-based; conditions: 3 weeks; for % inhibition: at the total conc, vs blank; for Total conc: total biocide conc in paint reported for pass level ≧75% inhibition (max tested 5000 ppm if no pass)
Method: as §1, §2, §3, §4, §5, §6, §7

`CCCCCCCCn1sc(Cl)c(Cl)c1=O` [DCOIT, 4,5-dichloro-2-n-octyl-4-isothiazolin-3-one] was tested. Which “% inhibition” value ([1]; DCOIT/Lenacil table) did it give?
Its value is 85%.

And the Total conc ([1]; DCOIT/Lenacil table)?
The Total conc was 1000 ppm.

And the “% inhibition” value ([2]; DCOIT/Lenacil table)?
The value was 95%.

What about the Total conc ([2]; DCOIT/Lenacil table) of the same compound?
The Total conc was 1000 ppm.

Which “% inhibition” value ([1]; DCOIT/Lenacil table) does the source give for `O=c1[nH]c2c(c(=O)n1C1CCCCC1)CCC2` [Lenacil, 3-cyclohexyl-1,5,6,7-tetrahydrocyclopentapyrimidine-2,4(3H)-dione] here?
The value was 30%.

What about the Total conc ([1]; DCOIT/Lenacil table) of the same compound?
The Total conc was 5000 ppm.

What about the “% inhibition” value ([1]; OIT/Lenacil table) of the same compound?
Its value is 45%.

And the Total conc ([1]; OIT/Lenacil table)?
The Total conc was 5000 ppm.

What about the “% inhibition” value ([2]; DCOIT/Lenacil table) of the same compound?
The value was 70%.

And the Total conc ([2]; DCOIT/Lenacil table)?
The Total conc was 5000 ppm.

And the “% inhibition” value ([2]; OIT/Lenacil table)?
Its value is 30%.

And the Total conc ([2]; OIT/Lenacil table)?
The Total conc was 5000 ppm.

With `CCCCCCCCn1sccc1=O` [OIT, 2-n-octyl-4-isothiazolin-3-one] as the compound, how does the “% inhibition” value ([1]; OIT/Lenacil table) read?
The value was 95%.

And the Total conc ([1]; OIT/Lenacil table)?
The Total conc was 1000 ppm.

What about the “% inhibition” value ([2]; OIT/Lenacil table) of the same compound?
Its value is 90%.

And the Total conc ([2]; OIT/Lenacil table)?
Its Total conc is 500 ppm.

Reference: patent publication US9301528B2 (Rohm and Haas Company, priority 2012, dated 2016)
